Here are results for two molecules from US20060079540A1, “Pde4 and pde3/4 inhibitors for use in the treatment of cachexia” (Altana Pharma AG, priority 2002, published 2006).

Type in all cases: cell-based, human
Assay [1] concerns secretion of TNFα from LXFE 397 epidermoid adenocarcinoma Xenograft explants. In words: TNFα secretion from LXFE 397 epidermoid adenocarcinoma xenograft explants (ELISA). Particulars: for TNFα content of the supernatants: 24 hours. As for the experimental part:
FIG. 4: Effects of Zardaverine (left graph) and Piclamilast (right graph) on the secretion of TNFα from LXFE 397 epidermoid adenocarcinoma Xenograft explants. Tumor fragments from mice carrying LXFE 397 xenografts were excised and cell suspensions were seeded into 24 Well plates. After seeding of the cells, Zardaverine at concentrations of 30, 10, and 3 μM, respectively, and Piclamilast at concentrations of 0.3; 0.1; and 0.03 μM, respectively were added and supernatants were harvested 24 hours later. TNFα content of the supernatants was quantitated using R&D Quantikine ELISA kits according to the manufacturers recommendations.
(§1) To this end primary cultures of tumor cells were derived from cachexia inducing human xenografts grown subcutaneously in nude mice.
(§2) 5 to 10 NMRI nude mice were implanted with tumor fragments derived from the above mentioned Xenografts and grown until the tumors reached approximately 0.5 g, which correlated well with the onset of cachexia. Animals were then sacrificed and tumors were excised. Cells were subsequently isolated under sterile conditions by the use of mechanic disintegrators, proteases, hyaluronidase, and DNAse I. The crude suspension was passed twice through sterile sieves with diameters of 200 and 50 μM, respectively.
(§3) Washed cell pellets were resuspended in Iscove's modified Dulbecco's Medium +20% FCS (fetal calf serum) and 0.24 to 1×10^6 tumor cells were seeded in 24 well plates. The cell isolates not only contained tumor cells, but also blood cells and stromal elements of murine origin. The cell lines RXF 486L was directly utilized and 1×10^6 cells were seeded into each well.
(§4) Piclamilast and Zardaverine were dissolved in 100% DMSO (dimethyl sulfoxide) and applied at a final concentration of 1 μM to 0.001 μM (Piclamilast) or 100 μM to 0.1 μM (Zardaverine). Drugs and cells were plated at the same time. 24 hours after seeding supernatants were collected, centrifuged, and stored at −80° C.
(§5) For the quantitative measurement of IL-1, IL-6, and TNFα, respectively, the supernatants were analyzed using Quantikine ELISA Kits from R&D Systems according to the manufacturer's recommendations.

Assay [2] deals with secretion of IL-1 from LXFA 526 lung adenocarcinoma Xenograft explants. The assay can be described thus: IL-1 secretion from LXFA 526 lung adenocarcinoma xenograft explants (ELISA). Particulars: for IL-1 content of the supernatants: 24 hours, DMSO control 85.3 pg/ml. As for the experimental part: (§6) FIG. 1: Effects of Zardaverine (left graph) and Piclamilast (right graph) on the secretion of IL-1 from LXFA 526 lung adenocarcinoma Xenograft explants. Tumor fragments from mice carrying LXFA 526 xenografts were excised and cell suspensions were seeded into 24 Well plates. After seeding of the cells, Zardaverine at concentrations of 100, 3, and 0.1 μM, respectively, and Piclamilast at concentrations of 1, 0.3 and 0.001 μM, respectively were added and supernatants were harvested 24 hours later. IL-1 content of the supernatants was quantitated using R&D Quantikine ELISA kits according to the manufacturer's recommendations.
as §1, §2, §3, §4, §5

Assay [3] concerns secretion of TNFα from LXFA 526 lung adenocarcinoma Xenograft explants. The assay can be described thus: TNFα secretion from LXFA 526 lung adenocarcinoma xenograft explants (ELISA). Particulars: for TNFα content of the supernatants: 24 hours, DMSO control 16.8 pg/ml. As for the experimental part: as §6, with “3:” for “1:”, “TNFα” for “IL-1”
as §1, §2, §3, §4, §5
In general terms: In an ELISA, binding on a coated surface is turned into a signal by an enzyme label.

The subject of assay [4] is secretion of IL-1 from RXF 393 hypernephroma Xenograft explants. The assay can be described thus: IL-1 secretion from RXF 393 hypernephroma xenograft explants (ELISA). Particulars: for IL-1 content of the supernatants: 24 hours, DMSO control 46.9 pg/ml. As for the experimental part: as §6, with “2:” for “1:”, “RXF 393 hypernephroma” for “LXFA 526 lung adenocarcinoma”, “RXF 393” for “LXFA 526”, “100” for “100, 3,”, “0.01” for “0.3”
as §1, §2, §3, §4, §5

On to `COc1cc(-c2ccc(=O)[nH]n2)ccc1OC(F)F` [Zardaverine], for which the “TNFα content of the supernatants” value was found to be 27.7 pg/mL in assay [1] (3 μM, DMSO control 30.3 pg/ml); 28.2 pg/mL in assay [1] (10 μM, DMSO control 30.3 pg/ml); 20.1 pg/mL in assay [1] (30 μM, DMSO control 30.3 pg/ml); 13.8 pg/mL in assay [3] (0.1 μM); 12.9 pg/mL in assay [3] (3 μM); 12.6 pg/mL in assay [3] (100 μM). Besides, the “IL-1 content of the supernatants” value is 77.1 pg/mL in assay [2] (0.1 μM); 67.9 pg/mL in assay [2] (3 μM); 64.5 pg/mL in assay [2] (100 μM); 48.1 pg/mL in assay [4] (0.1 μM); 32.1 pg/mL in assay [4] (100 μM).

Take `COc1ccc(C(=O)Nc2c(Cl)cncc2Cl)cc1OC1CCCC1` [Piclamilast]: the “TNFα content of the supernatants” value in assay [1] (0.03 μM, DMSO control 21.5 pg/ml) is 14.1 pg/mL; in assay [1] (0.1 μM, DMSO control 21.5 pg/ml), 12.1 pg/mL; in assay [1] (0.3 μM, DMSO control 21.5 pg/ml) it was 10 pg/mL; in assay [3] (0.001 μM), 17.2 pg/mL; in assay [3] (0.3 μM) it was 15.1 pg/mL; in assay [3] (1 μM) it was 13.9 pg/mL. Further, the “modulation of TNFα levels (in words)” value in assay [1] (LXFE 397 model) and in assay [3] (LXFA 526 cells) was “able to inhibit the secretion of TNFα” throughout. Also, the “IL-1 content of the supernatants” value in assay [2] (0.001 μM) was 81.9 pg/mL; in assay [2] (0.3 μM), 64.4 pg/mL; in assay [2] (1 μM), 68.9 pg/mL; in assay [4] (0.001 μM), 43.2 pg/mL; in assay [4] (0.01 μM), 43.9 pg/mL; in assay [4] (1 μM) it was 37.8 pg/mL. Moreover, the “Modulation of IL-1 expression (in words)” value in assay [2] (LXFA 526) and in assay [4] (RXF 393) was “able to suppress IL-1 levels” throughout.
